From patent publication US10752635B2, “Indazole compounds and uses thereof” (Incyte Corporation, priority 2018, dated 2020)

Each compound was assayed against HPK1 (Homo sapiens (Human), UniProt Q92918) (assay: HPK1 Kinase Binding Assay). Details: active HPK1 (SignalChem M23-11G), tracer 222, LanthaScreen Eu-Anti GST antibody, one hour at 25° C.
Method: A stock solution of 1 mM test compound was prepared in DMSO. The compound plate was prepared by 3-fold and 11-point serial dilutions. 0.1 μL of the compound in DMSO was transferred from the compound plate to the white 384 well polystyrene plates. The assay buffer contained 50 mM HEPES, pH 7.5, 0.01% Tween-20, 5 mM MgCl2, 0.01% BSA, and 5 mM DTT. 5 μL of 4 nM active HPK1 (SignalChem M23-11G) prepared in the buffer was added to the plate. The enzyme concentration given was based on the given stock concentration reported by the vender. […] After one hour incubation at 25° C., the plates were read on a PHERAstar FS plate reader (BMG Labtech). Ki values were determined.

Sequence of HPK1 (Q92918 1-346 limits assumed): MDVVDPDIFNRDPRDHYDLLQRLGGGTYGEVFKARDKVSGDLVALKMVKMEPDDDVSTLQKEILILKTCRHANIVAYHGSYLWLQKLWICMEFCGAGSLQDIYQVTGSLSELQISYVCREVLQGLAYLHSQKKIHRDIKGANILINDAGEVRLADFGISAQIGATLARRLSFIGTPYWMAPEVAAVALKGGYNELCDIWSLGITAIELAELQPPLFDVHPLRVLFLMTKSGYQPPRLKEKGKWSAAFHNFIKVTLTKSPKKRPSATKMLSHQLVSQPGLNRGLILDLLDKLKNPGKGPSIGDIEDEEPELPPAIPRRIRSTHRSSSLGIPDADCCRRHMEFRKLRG

Ki, < 0.1 µM:
COc1cccc(F)c1-c1nccc(C(=O)Nc2cc(F)c3c(cnn3CCF)c2N2C[C@@H]3C[C@H]2CN3)n1 [Example 36, N-(4-((1S,4S)-2,5-Diazabicyclo[2.2.1]heptan-2-yl)-7-fluoro-1-(2-fluoroethyl)-1H-indazol-5-yl)-2-(2-fluoro-6-methoxyphenyl)pyrimidine-4-carboxamide]
[2H]C([2H])([2H])Oc1ccc(C)c(F)c1-c1nccc(C(=O)Nc2cc(F)c3c(cnn3CCOC)c2N2C[C@@H](N)C[C@H]2CO)n1 [Example 37, N-(4-((2S,4S)-4-Amino-2-(hydroxymethyl)pyrrolidin-1-yl)-7-fluoro-1-(2-methoxyethyl)-1H-indazol-5-yl)-2-(2-fluoro-6-(methoxy-d3)-3-methylphenyl)pyrimidine-4-carboxamide]
COCCn1ncc2c(N3C[C@@H](N)C[C@H]3CO)c(NC(=O)c3ccnc(-c4c(F)cc(N)cc4OC)n3)cc(F)c21 [Example 38, N-(4-((2S,4S)-4-Amino-2-(hydroxymethyl)pyrrolidin-1-yl)-7-fluoro-1-(2-methoxyethyl)-1H-indazol-5-yl)-2-(4-amino-2-fluoro-6-methoxyphenyl)pyrimidine-4-carboxamide]
CNC(=O)c1ccc(OC)c(-c2nccc(C(=O)Nc3cc(F)c4c(cnn4CCOC)c3N3C[C@@H](N)C[C@H]3CO)n2)c1F [Example 39, N-(4-((2S,4S)-4-Amino-2-(hydroxymethyl)pyrrolidin-1-yl)-7-fluoro-1-(2-methoxyethyl)-1H-indazol-5-yl)-2-(2-fluoro-6-methoxy-3-(methylcarbamoyl)phenyl)pyrimidine-4-carboxamide]
COCCn1ncc2c(N3C[C@@H](N)C[C@H]3CO)c(NC(=O)c3ccnc(-c4c(OC)ccc(-c5cnn(C)c5)c4F)n3)cc(F)c21 [Example 40, N-(4-((2S,4S)-4-Amino-2-(hydroxymethyl)pyrrolidin-1-yl)-7-fluoro-1-(2-methoxyethyl)-1H-indazol-5-yl)-2-(2-fluoro-6-methoxy-3-(1-methyl-1H-pyrazol-4-yl)phenyl)pyrimidine-4-carboxamide]
COc1cccc(F)c1-c1nccc(C(=O)Nc2cc(F)c3c(cnn3C)c2N(C)[C@@H]2CCCNC2)n1 [Example 41, (R)—N-(7-Fluoro-1-methyl-4-(methyl(piperidin-3-yl)amino)-1H-indazol-5-yl)-2-(2-fluoro-6-methoxyphenyl)pyrimidine-4-carboxamide]
COCCn1ncc2c(N3C[C@@H](N)C[C@H]3CO)c(NC(=O)c3cccc(-c4c(F)cccc4OC)n3)cc(F)c21 [Example 42, N-(4-((2S,4S)-4-Amino-2-(hydroxymethyl)pyrrolidin-1-yl)-7-fluoro-1-(2-methoxyethyl)-1H-indazol-5-yl)-6-(2-fluoro-6-methoxyphenyl)picolinamide]
